# Results reported in patent publication US9549932B2, “2-(morpholin-4-yl)-1,7-naphthyridines” (BAYER PHARMA AKTIENGESELLSCHAFT, priority 2014, dated 2017).
# Target: full-length human ATR protein (Homo sapiens (Human), UniProt Q13535)
# Assay: Binding assay ATR (TR-FRET tracer displacement)
# Conditions: tracer A, TR-FRET; read-out: ATR binding (tracer A) IC50
# Text: To determine of binding activity of the test compounds, full-length human ATR protein was expressed and purified together with ATRIP as described above. Furthermore, a fluorescently labelled compound (either tracer A or B as described above) was used as a tracer molecule. Detection of the binding event of the tracer was achieved by time-resolved fluorescence energy transfer (TR-FRET). We used an anti-GST-Terbium antibody (CisBio) that binds to the GST-tag at the N-terminus of ATR-kinase. […] Displacement of the fluorescent tracer by a test compound leads to a reduction of the TR-FRET-signal.
# For the assay 50 nl of a 100-fold concentrated solution of the test compound in DMSO was pipetted into a black low volume 384well microtiter plate (MTP, Greiner Bio-One, Frickenhausen, Germany). […] The ATR-working solution was incubated for 30 min at 22° C. prior to dispensing to pre-form the complex of antiGST-Tb+GST-ATR+ATRIP. Then, 3 μl of the ATR-working solution were added to the test compound and the mixture was incubated for 10 min at 22° C. to allow pre-binding of the test compounds to ATR/ATRIP. Then, 2 μl of a 100 nM solution of either tracer A or B in assay buffer were added to the ATR-working solution. The resulting mixture was incubated for 30 min at 22° C. […] The dilution series were prepared separately before the assay on the level of the 100 fold concentrated solutions in DMSO by serial 1:3.4 dilutions in duplicate values for each concentration. IC50 values were calculated by a 4 parameter fit using standard software (GraphPad prism or equivalent).
# Sequence of full-length human ATR protein (Q13535 other isoform, or with tags, fused parts or gaps): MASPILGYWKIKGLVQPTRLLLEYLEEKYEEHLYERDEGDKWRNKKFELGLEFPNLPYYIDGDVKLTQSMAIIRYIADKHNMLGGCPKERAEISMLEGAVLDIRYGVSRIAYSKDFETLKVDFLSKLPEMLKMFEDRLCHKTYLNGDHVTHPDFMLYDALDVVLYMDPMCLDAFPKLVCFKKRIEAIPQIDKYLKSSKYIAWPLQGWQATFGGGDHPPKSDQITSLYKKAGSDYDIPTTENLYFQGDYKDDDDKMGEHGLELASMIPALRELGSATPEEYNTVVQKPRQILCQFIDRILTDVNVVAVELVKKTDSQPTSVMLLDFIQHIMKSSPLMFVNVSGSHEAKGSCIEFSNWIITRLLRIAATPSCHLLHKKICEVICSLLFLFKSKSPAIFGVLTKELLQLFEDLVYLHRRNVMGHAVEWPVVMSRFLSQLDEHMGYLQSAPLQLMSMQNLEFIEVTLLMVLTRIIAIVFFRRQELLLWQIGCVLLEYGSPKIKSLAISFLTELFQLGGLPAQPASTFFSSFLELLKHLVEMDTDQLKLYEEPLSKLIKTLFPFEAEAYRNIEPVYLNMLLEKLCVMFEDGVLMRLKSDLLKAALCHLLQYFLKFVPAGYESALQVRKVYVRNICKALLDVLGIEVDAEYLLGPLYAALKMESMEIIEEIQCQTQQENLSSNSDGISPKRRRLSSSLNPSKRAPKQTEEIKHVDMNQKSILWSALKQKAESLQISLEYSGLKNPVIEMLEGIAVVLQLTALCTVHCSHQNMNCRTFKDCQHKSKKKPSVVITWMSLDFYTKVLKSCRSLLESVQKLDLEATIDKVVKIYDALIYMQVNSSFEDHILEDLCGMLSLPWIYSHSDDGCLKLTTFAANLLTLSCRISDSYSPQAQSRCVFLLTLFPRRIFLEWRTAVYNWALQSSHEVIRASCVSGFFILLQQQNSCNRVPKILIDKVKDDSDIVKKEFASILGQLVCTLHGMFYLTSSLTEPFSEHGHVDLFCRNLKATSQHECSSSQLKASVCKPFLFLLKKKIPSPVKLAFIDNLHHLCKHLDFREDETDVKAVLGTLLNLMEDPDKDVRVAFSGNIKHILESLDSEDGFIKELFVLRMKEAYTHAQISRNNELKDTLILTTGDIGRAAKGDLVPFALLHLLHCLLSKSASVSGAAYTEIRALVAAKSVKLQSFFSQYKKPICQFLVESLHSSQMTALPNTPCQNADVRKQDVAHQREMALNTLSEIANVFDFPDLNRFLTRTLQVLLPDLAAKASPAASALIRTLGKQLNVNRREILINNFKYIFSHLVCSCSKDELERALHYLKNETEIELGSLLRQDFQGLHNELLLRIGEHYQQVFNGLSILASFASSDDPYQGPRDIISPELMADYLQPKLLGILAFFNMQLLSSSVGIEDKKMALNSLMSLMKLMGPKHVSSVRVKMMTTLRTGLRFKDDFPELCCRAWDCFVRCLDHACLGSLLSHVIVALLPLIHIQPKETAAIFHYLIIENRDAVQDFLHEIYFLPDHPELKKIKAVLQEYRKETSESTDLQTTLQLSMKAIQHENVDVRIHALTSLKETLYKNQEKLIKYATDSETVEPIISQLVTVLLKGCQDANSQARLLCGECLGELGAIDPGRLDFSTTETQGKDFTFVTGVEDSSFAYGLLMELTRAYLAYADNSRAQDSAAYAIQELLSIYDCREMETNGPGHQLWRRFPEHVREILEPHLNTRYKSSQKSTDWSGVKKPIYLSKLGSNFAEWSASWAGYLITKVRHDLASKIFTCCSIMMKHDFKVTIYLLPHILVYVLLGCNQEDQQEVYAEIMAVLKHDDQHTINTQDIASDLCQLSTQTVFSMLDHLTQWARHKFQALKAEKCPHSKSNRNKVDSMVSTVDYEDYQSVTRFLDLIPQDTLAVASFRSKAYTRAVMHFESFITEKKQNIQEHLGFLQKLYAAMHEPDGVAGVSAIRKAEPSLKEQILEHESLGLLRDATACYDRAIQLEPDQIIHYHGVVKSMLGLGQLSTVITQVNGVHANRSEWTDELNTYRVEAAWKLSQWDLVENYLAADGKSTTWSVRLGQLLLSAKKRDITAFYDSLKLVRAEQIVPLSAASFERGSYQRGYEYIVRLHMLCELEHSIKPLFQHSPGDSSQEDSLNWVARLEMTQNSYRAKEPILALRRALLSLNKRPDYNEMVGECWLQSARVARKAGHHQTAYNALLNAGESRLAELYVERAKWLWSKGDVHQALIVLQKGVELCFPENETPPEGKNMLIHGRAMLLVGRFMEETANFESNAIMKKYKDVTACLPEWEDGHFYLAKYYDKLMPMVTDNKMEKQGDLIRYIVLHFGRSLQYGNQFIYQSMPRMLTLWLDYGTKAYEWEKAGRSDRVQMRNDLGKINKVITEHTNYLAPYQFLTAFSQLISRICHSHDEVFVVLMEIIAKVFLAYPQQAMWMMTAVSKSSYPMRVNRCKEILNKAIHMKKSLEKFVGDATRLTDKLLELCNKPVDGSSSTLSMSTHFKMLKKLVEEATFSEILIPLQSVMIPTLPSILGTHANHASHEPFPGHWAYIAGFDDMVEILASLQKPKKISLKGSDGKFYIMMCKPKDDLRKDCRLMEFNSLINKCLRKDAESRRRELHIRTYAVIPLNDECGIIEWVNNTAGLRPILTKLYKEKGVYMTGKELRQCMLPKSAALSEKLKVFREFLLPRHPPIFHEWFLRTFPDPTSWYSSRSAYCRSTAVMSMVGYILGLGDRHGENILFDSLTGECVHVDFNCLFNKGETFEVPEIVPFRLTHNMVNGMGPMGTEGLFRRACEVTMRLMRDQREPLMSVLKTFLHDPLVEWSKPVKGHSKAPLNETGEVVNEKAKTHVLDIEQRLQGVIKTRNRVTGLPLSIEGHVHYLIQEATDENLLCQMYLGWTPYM
# Sequence of full-length human ATR protein (Q8WXE1 other isoform, or with tags, fused parts or gaps partner): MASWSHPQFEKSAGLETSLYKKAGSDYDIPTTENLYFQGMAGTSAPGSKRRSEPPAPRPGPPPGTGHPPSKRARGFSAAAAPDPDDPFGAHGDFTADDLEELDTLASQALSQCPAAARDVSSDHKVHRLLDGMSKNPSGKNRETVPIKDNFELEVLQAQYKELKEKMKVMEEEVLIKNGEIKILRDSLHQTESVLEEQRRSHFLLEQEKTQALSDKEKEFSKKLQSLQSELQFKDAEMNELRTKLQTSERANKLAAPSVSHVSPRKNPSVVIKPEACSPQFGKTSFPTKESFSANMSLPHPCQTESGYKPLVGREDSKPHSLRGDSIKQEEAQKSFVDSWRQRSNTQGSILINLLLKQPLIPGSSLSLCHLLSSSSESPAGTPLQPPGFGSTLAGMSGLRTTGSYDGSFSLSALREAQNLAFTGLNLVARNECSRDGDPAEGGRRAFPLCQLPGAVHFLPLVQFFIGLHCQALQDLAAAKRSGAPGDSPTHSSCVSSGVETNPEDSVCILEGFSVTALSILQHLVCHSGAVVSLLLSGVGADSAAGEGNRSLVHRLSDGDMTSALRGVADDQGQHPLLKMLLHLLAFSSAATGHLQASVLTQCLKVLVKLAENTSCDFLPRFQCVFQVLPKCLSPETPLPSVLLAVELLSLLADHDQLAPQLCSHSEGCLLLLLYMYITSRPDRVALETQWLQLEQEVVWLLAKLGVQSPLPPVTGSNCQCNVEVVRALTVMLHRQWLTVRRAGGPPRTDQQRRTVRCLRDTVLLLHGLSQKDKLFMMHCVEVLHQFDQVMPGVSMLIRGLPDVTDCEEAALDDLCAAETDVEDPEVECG
row,SMILES,IC50 [nM]
1,"CS(=O)(=O)c1nc(-c2cc(N3CCOCC3)nc3c(-c4ccn[nH]4)nccc23)cs1 [Example 21, 4-[2-(methylsulfonyl)-1,3-thiazol-4-yl]-2-(morpholin-4-yl)-8-(1H-pyrazol-5-yl)-1,7-naphthyridine]",190
2,"C[C@@H]1COCCN1c1cc(-c2cnn(CCO)c2)c2ccnc(-c3ccn[nH]3)c2n1 [Example 260, 2-(4-{2-[(3R)-3-methylmorpholin-4-yl]-8-(1H-pyrazol-5-yl)-1,7-naphthyridin-4-yl}-1H-pyrazol-1-yl)ethanol]",28.1
3,"C[C@@H]1COCCN1c1cc(-c2ccnn2C(C)(C)C)c2ccnc(-c3ccn[nH]3)c2n1 [Example 110, 4-(1-tert-butyl-1H-pyrazol-5-yl)-2-[(3R)-3-methylmorpholin-4-yl]-8-(1H-pyrazol-5-yl)-1,7-naphthyridine]",13.5
4,"COc1ccc(F)cc1-c1cc(N2CCOCC2)nc2c(-c3ccn[nH]3)nccc12 [Example 339, 4-(5-fluoro-2-methoxyphenyl)-2-(morpholin-4-yl)-8-(1H-pyrazol-5-yl)-1,7-naphthyridine]",89.6
5,"COc1ccncc1-c1cc(N2CCOCC2)nc2c(-c3ccn[nH]3)nccc12 [Example 375, 4-(4-methoxypyridin-3-yl)-2-(morpholin-4-yl)-8-(1H-pyrazol-5-yl)-1,7-naphthyridine]",894
6,"Cc1cc(-c2cc(N3CCOCC3)nc3c(-c4ccn[nH]4)nccc23)n[nH]1 [Example 214, 4-(5-methyl-1H-pyrazol-3-yl)-2-(morpholin-4-yl)-8-(1H-pyrazol-5-yl)-1,7-naphthyridine]",176
7,"C[C@@H]1COCCN1c1cc(-c2cccc(S(C)(=O)=O)c2F)c2ccnc(-c3ccn[nH]3)c2n1 [Example 132, 4-[2-fluoro-3-(methylsulfonyl)phenyl]-2-[(3R)-3-methylmorpholin-4-yl]-8-(1H-pyrazol-5-yl)-1,7-naphthyridine]",23.7
8,"C[C@@H]1COCCN1c1cc(N2CCCC2)c2ccnc(-c3ccn[nH]3)c2n1 [Example 175, 2-[(3R)-3-methylmorpholin-4-yl]-8-(1H-pyrazol-5-yl)-4-(pyrrolidin-1-yl)-1,7-naphthyridine]",221
9,"c1cncc(-c2cc(N3CCOCC3)nc3c(-c4ccn[nH]4)nccc23)c1 [Example 350, 2-(morpholin-4-yl)-8-(1H-pyrazol-5-yl)-4-(pyridin-3-yl)-1,7-naphthyridine]",162
10,"CCOc1ccc(-c2cc(N3CCOCC3)nc3c(-c4ccn[nH]4)nccc23)cn1 [Example 382, 4-(6-ethoxypyridin-3-yl)-2-(morpholin-4-yl)-8-(1H-pyrazol-5-yl)-1,7-naphthyridine]",199
11,"c1cc(-c2nccc3c(OCC4CCCO4)cc(N4CCOCC4)nc23)[nH]n1 (centres unmarked) [Example 46, 2-(morpholin-4-yl)-8-(1H-pyrazol-5-yl)-4-(tetrahydrofuran-2-ylmethoxy)-1,7-naphthyridine]",262
12,"CN1CC=C(c2cc(N3CCOCC3)nc3c(-c4ccn[nH]4)nccc23)CC1 [Example 14, 4-(1-methyl-1,2,3,6-tetrahydropyridin-4-yl)-2-(morpholin-4-yl)-8-(1H-pyrazol-5-yl)-1,7-naphthyridine]",162
13,"c1cc(-c2nccc3c(N4C5CCC4COC5)cc(N4CCOCC4)nc23)[nH]n1 [Example 174, 2-(morpholin-4-yl)-4-(3-oxa-8-azabicyclo[3.2.1]oct-8-yl)-8-(1H-pyrazol-5-yl)-1,7-naphthyridine]",213
14,"C[C@@H]1COCCN1c1cc(C2CC2)c2ccnc(-c3cc[nH]n3)c2n1 [Example 29, 4-cyclopropyl-2-((R)-3-methylmorpholin-4-yl)-8-(1H-pyrazol-3-yl)-[1,7]-naphthyridine]",21.5
15,"CC(C)CN(C)c1cc(N2CCOCC2)nc2c(-c3ccn[nH]3)nccc12 [Example 423, N-methyl-N-(2-methylpropyl)-2-(morpholin-4-yl)-8-(1H-pyrazol-5-yl)-1,7-naphthyridin-4-amine]",83.9
16,"COc1cccc(-c2cc(N3CCOCC3)nc3c(-c4ccn[nH]4)nccc23)c1 [Example 306, 4-(3-methoxyphenyl)-2-(morpholin-4-yl)-8-(1H-pyrazol-5-yl)-1,7-naphthyridine]",82.3
17,"C[C@@H]1COCCN1c1cc(-c2ccc(F)cn2)c2ccnc(-c3ccn[nH]3)c2n1 [Example 163, 4-(5-fluoropyridin-2-yl)-2-[(3R)-3-methylmorpholin-4-yl]-8-(1H-pyrazol-5-yl)-1,7-naphthyridine]",107
18,"c1ccc(COc2cc(N3CCOCC3)nc3c(-c4cc[nH]n4)nccc23)cc1 [Example 50, 4-benzyloxy-2-(morpholin-4-yl)-8-(1H-pyrazol-3-yl)-[1,7]naphthyridine]",410

row,SMILES,IC50 [nM]
1,"CC(C)S(=O)(=O)c1ccc(-c2cc(N3CCOC[C@H]3C)nc3c(-c4ccn[nH]4)nccc23)cc1 [Example 151, 4-[4-(isopropylsulfonyl)phenyl]-2-[(3R)-3-methylmorpholin-4-yl]-8-(1H-pyrazol-5-yl)-1,7-naphthyridine]",51.2
2,"C[C@@H]1COCCN1c1cc(C2=CCCN(C)C2)c2ccnc(-c3ccn[nH]3)c2n1 [Example 242, 2-[(3R)-3-methylmorpholin-4-yl]-4-(1-methyl-1,2,5,6-tetrahydropyridin-3-yl)-8-(1H-pyrazol-5-yl)-1,7-naphthyridine]",95.9
3,"C[C@@H]1COCCN1c1cc(N(C)c2ccc(F)cc2)c2ccnc(-c3ccn[nH]3)c2n1 [Example 87, N-(4-fluorophenyl)-N-methyl-2-[(3R)-3-methylmorpholin-4-yl]-8-(1H-pyrazol-5-yl)-1,7-naphthyridin-4-amine]",8.71
4,"Fc1ccc(-c2cc(N3CCOCC3)nc3c(-c4ccn[nH]4)nccc23)cc1 [Example 314, 4-(4-fluorophenyl)-2-(morpholin-4-yl)-8-(1H-pyrazol-5-yl)-1,7-naphthyridine]",67.9
5,"COc1cncc(-c2cc(N3CCOCC3)nc3c(-c4ccn[nH]4)nccc23)c1 [Example 353, 4-(5-methoxypyridin-3-yl)-2-(morpholin-4-yl)-8-(1H-pyrazol-5-yl)-1,7-naphthyridine]",242
6,"C[C@@H]1COCCN1c1cc(-c2ccc(F)cc2F)c2ccnc(-c3ccn[nH]3)c2n1 [Example 123, 4-(2,4-difluorophenyl)-2-[(3R)-3-methylmorpholin-4-yl]-8-(1H-pyrazol-5-yl)-1,7-naphthyridine]",21.3
7,"COc1ccsc1-c1cc(N2CCOC[C@H]2C)nc2c(-c3ccn[nH]3)nccc12 [Example 235, 4-(3-methoxythiophen-2-yl)-2-[(3R)-3-methylmorpholin-4-yl]-8-(1H-pyrazol-5-yl)-1,7-naphthyridine]",21.3
8,"c1cc(-c2cc(N3CCOCC3)nc3c(-c4ccn[nH]4)nccc23)c2cccnc2c1 [Example 349, 2-(morpholin-4-yl)-8-(1H-pyrazol-5-yl)-4-(quinolin-5-yl)-1,7-naphthyridine]",119
9,CS(=N)(=O)c1cccc(-c2cc(N3CCOCC3)nc3c(-c4ccn[nH]4)nccc23)c1 (centres unmarked) [Example 19],293
10,"N#Cc1cc(N2CCOCC2)nc2c(-c3cc[nH]n3)nccc12 [Example 34, 2-(morpholin-4-yl)-8-(1H-pyrazol-3-yl)-[1,7]naphthyridine-4-carbonitrile]",357
11,"C[C@@H]1COCCN1c1cc(-c2cccn2C)c2ccnc(-c3ccn[nH]3)c2n1 [Example 91, 2-[(3R)-3-methylmorpholin-4-yl]-4-(1-methyl-1H-pyrrol-2-yl)-8-(1H-pyrazol-5-yl)-1,7-naphthyridine]",10
12,"C[C@@H]1COCCN1c1cc(-c2ccncc2F)c2ccnc(-c3ccn[nH]3)c2n1 [Example 230, 4-(3-fluoropyridin-4-yl)-2-[(3R)-3-methylmorpholin-4-yl]-8-(1H-pyrazol-5-yl)-1,7-naphthyridine]",31.7
13,"CSc1cncc(-c2cc(N3CCOCC3)nc3c(-c4ccn[nH]4)nccc23)c1 [Example 400, 4-[5-(methylsulfanyl)pyridin-3-yl]-2-(morpholin-4-yl)-8-(1H-pyrazol-5-yl)-1,7-naphthyridine]",300
14,"C[C@@H]1COCCN1c1cc(C2CCNCC2)c2ccnc(-c3ccn[nH]3)c2n1 [Example 251, 2-[(3R)-3-methylmorpholin-4-yl]-4-(piperidin-4-yl)-8-(1H-pyrazol-5-yl)-1,7-naphthyridine]",27.5
15,"Fc1ncccc1-c1cc(N2CCOCC2)nc2c(-c3ccn[nH]3)nccc12 [Example 359, 4-(2-fluoropyridin-3-yl)-2-(morpholin-4-yl)-8-(1H-pyrazol-5-yl)-1,7-naphthyridine]",85.5
16,"C[S+]([O-])c1cc(N2CCOCC2)nc2c(-c3ccn[nH]3)nccc12 (centres unmarked) [Example 202, 4-(methylsulfinyl)-2-(morpholin-4-yl)-8-(1H-pyrazol-5-yl)-1,7-naphthyridine]",78.3
17,"CC(C)[S+]([O-])c1cc(N2CCOCC2)nc2c(-c3ccn[nH]3)nccc12 (centres unmarked) [Example 196, 2-(morpholin-4-yl)-4-[propan-2-ylsulfinyl]-8-(1H-pyrazol-5-yl)-1,7-naphthyridine]",72.6

# Same assay, conditions: tracer B, TR-FRET; read-out: ATR binding (tracer B) IC50
row,SMILES,IC50 [nM]
1,"CN1CC=C(c2cc(N3CCOCC3)nc3c(-c4ccn[nH]4)nccc23)CC1 [Example 14, 4-(1-methyl-1,2,3,6-tetrahydropyridin-4-yl)-2-(morpholin-4-yl)-8-(1H-pyrazol-5-yl)-1,7-naphthyridine]",79.9
2,"C[C@@H]1COCCN1c1cc(C2CC2)c2ccnc(-c3cc[nH]n3)c2n1 [Example 29, 4-cyclopropyl-2-((R)-3-methylmorpholin-4-yl)-8-(1H-pyrazol-3-yl)-[1,7]-naphthyridine]",9.23
3,"c1ccc(COc2cc(N3CCOCC3)nc3c(-c4cc[nH]n4)nccc23)cc1 [Example 50, 4-benzyloxy-2-(morpholin-4-yl)-8-(1H-pyrazol-3-yl)-[1,7]naphthyridine]",514
4,"CC(C)S(=O)(=O)c1ccc(-c2cc(N3CCOC[C@H]3C)nc3c(-c4ccn[nH]4)nccc23)cc1 [Example 151, 4-[4-(isopropylsulfonyl)phenyl]-2-[(3R)-3-methylmorpholin-4-yl]-8-(1H-pyrazol-5-yl)-1,7-naphthyridine]",23.2
5,CS(=N)(=O)c1cccc(-c2cc(N3CCOCC3)nc3c(-c4ccn[nH]4)nccc23)c1 (centres unmarked) [Example 19],181
6,"N#Cc1cc(N2CCOCC2)nc2c(-c3cc[nH]n3)nccc12 [Example 34, 2-(morpholin-4-yl)-8-(1H-pyrazol-3-yl)-[1,7]naphthyridine-4-carbonitrile]",536
